Experimental findings from US11787796B2, “Plasma Kallikrein inhibitors and uses thereof” (Takeda Pharmaceutical Company Limited, priority 2019, dated 2023) are described below.

The assay addresses human activated kallikrein enzyme (Homo sapiens (Human), UniProt P03952). The experiment in a line: Plasma kallikrein inhibition assay with fluorogenic peptide substrate, 500 pM activated kallikrein format. Type of assay: biochemical. Particulars: read-out: Primary Dose Response Assay: Average EC50. Put shortly:
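Human activated kallikrein (500 pM format) was preincubated 30 min at RT with inhibitor in 20 mM Tris pH 7.5, 150 mM NaCl, 1 mM EDTA, 0.1% PEG-400, 0.1% Triton X-100. Reactions then ran 10 min at RT with 300 uM Pro-Phe-Arg-AMC. Fluorescence was read at ex 380/em 460 nm.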

[1] abbreviates: 500 pM activated kallikrein, 300 uM Pro-Phe-Arg-7-amido-4-methylcoumarin substrate, 30 min preincubation, 10 min reaction at RT.

Usually EC50 stands for the midpoint of the concentration-response curve.

Where two headings read alike, the source gives them in different places. Some results are limits rather than exact numbers.

Chain of human activated kallikrein enzyme (P03952 391-638): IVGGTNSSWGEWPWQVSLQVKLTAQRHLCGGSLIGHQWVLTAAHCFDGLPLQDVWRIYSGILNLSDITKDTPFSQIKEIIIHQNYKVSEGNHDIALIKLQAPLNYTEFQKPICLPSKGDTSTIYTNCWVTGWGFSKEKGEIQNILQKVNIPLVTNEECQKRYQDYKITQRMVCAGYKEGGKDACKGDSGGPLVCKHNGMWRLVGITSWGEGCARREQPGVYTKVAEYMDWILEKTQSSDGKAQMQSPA
Chain of human activated kallikrein enzyme (P03952 20-390 partner): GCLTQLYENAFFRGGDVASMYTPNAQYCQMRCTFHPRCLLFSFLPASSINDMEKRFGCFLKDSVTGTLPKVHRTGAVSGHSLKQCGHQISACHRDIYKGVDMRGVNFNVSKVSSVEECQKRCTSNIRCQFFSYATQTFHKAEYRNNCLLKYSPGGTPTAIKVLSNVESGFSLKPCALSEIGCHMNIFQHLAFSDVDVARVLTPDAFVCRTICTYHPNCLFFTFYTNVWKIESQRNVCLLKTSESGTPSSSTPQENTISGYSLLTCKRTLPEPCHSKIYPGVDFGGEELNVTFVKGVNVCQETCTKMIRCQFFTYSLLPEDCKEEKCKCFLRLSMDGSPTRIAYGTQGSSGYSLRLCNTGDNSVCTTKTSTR

With `NC(=O)c1cnn(Cc2cn3cc(C4CC4)ccc3n2)c1`, the EC50 (comparative compounds (Table III), 500 pM activated kallikrein format) was greater than 7100 nM.
In the case of `COc1ccc(C#N)c(CNC(=O)c2cnn(Cc3cn4cc(C5CC5)ccc4n3)c2)c1F` [Example I-119, N-(6-cyano-2-fluoro-3-methoxybenzyl)-1-((6-cyclopropylimidazo[1,2-a]pyridin-2-yl)methyl)-1H-pyrazole-4-carboxamide], the EC50 under setting [1] lay in the range of 1 to 10 nM.
Still for that read-out and setting: next, `Cc1cc(N)nc(C)c1CNS(=O)(=O)c1cnn(Cc2cn3cc(C4CC4)ccc3n2)c1` [Example I-46, N-((6-amino-2,4-dimethylpyridin-3-yl)methyl)-1-((6-cyclopropylimidazo[1,2-a]pyridin-2-yl)methyl)-1H-pyrazole-4-sulfonamide]: 100 to 2000 nM.
Still for that read-out and setting: next, `O=S(=O)(NCCc1cccc(Cl)c1)c1cnn(Cc2cn3cc(C4CC4)ccc3n2)c1` [Example I-44, N-(3-chlorophenethyl)-1-((6-cyclopropylimidazo[1,2-a]pyridin-2-yl)methyl)-1H-pyrazole-4-sulfonamide]: greater than 7100 nM; `COc1ccc(S(=O)(=O)N2CCOCC2)c(CNC(=O)c2cn(Cc3cn4cc(C5CC5)ccc4n3)nn2)c1F` [Example I-48, 1-((6-cyclopropylimidazo[1,2-a]pyridin-2-yl)methyl)-N-(2-fluoro-3-methoxy-6-(morpholinosulfonyl)benzyl)-1H-1,2,3-triazole-4-carboxamide]: 1 to 10 nM; `CCc1ccc(-n2cnnn2)c(CNC(=O)c2cn(Cc3cn4cc(C5CC5)ccc4n3)nn2)c1F` [Example I-83, 1-((6-cyclopropylimidazo[1,2-a]pyridin-2-yl)methyl)-N-(3-ethyl-2-fluoro-6-(1H-tetrazol-1-yl)benzyl)-1H-1,2,3-triazole-4-carboxamide]: 10 to 100 nM.
With `O=C(NCc1ccc2sccc2c1)c1cn(Cc2cn3cc(C4CC4)ccc3n2)nn1` [Example I-84, N-(benzo[b]thiophen-5-ylmethyl)-1-((6-cyclopropylimidazo[1,2-a]pyridin-2-yl)methyl)-1H-1,2,3-triazole-4-carboxamide], the EC50 under setting [1] was in the range of 100 to 2000 nM.
Same read-out and setting: next, `COc1ccc(-n2cnnn2)c(CNC(=O)c2nc3n(n2)CCC3c2cn3cc(C4CC4)ccc3n2)c1F` (stereo not drawn) [Example I-4, 7-(6-cyclopropylimidazo[1,2-a]pyridin-2-yl)-N-(2-fluoro-3-methoxy-6-(1H-tetrazol-1-yl)benzyl)-6,7-dihydro-5H-pyrrolo[1,2-b][1,2,4]triazole-2-carboxamide]: 1 to 10 nM.
On the same count and under the same terms, next, `COc1ncc(C#N)c(CNC(=O)c2cn(Cc3cn4cc(C5CC5)ccc4n3)nn2)c1F` [Example I-72, N-((5-cyano-3-fluoro-2-methoxypyridin-4-yl)methyl)-1-((6-cyclopropylimidazo[1,2-a]pyridin-2-yl)methyl)-1H-1,2,3-triazole-4-carboxamide]: 100 to 2000 nM; `N#CNc1ccc(Cl)c(F)c1CNC(=O)c1cn(Cc2cn3cc(C4CC4)cc(CCC(=O)O)c3n2)nn1` [Example I-110, 3-(2-((4-((3-chloro-6-cyanamido-2-fluorobenzyl)carbamoyl)-1H-1,2,3-triazol-1-yl)methyl)-6-cyclopropylimidazo[1,2-a]pyridin-8-yl)propanoic Acid]: 1 to 10 nM.
The same measure, in the same setting: next, `O=C(NCc1c(-n2cnnn2)ccc(OC(F)(F)F)c1F)c1cn(Cc2cn3cc(C4CC4)ccc3n2)nn1` [Example I-98, 1-((6-cyclopropylimidazo[1,2-a]pyridin-2-yl)methyl)-N-(2-fluoro-6-(1H-tetrazol-1-yl)-3-(trifluoromethoxy)benzyl)-1H-1,2,3-triazole-4-carboxamide]: 100 to 2000 nM.
As to `Cc1cc(C(=N)N)cc(C)c1CNC(=O)c1cn(Cc2cn3cc(C4CC4)ccc3n2)nn1` [Example I-115, N-(4-carbamimidoyl-2,6-dimethylbenzyl)-1-((6-cyclopropylimidazo[1,2-a]pyridin-2-yl)methyl)-1H-1,2,3-triazole-4-carboxamide], the EC50 under setting [1] is no more than 1 nM.
Consider `O=S(=O)(NCc1cccc(Cl)c1)c1cnn(Cc2cn3cc(C4CC4)ccc3n2)c1` [Example I-47, N-(3-chlorobenzyl)-1-((6-cyclopropylimidazo[1,2-a]pyridin-2-yl)methyl)-1H-pyrazole-4-sulfonamide], for which the half-maximal effective concentration (EC50) under setting [1] was greater than 7100 nM.
On the same count and under the same terms, next, `O=C(NCc1csc2ccc(Cl)cc12)c1cnn(Cc2cn3cc(C4CC4)ccc3n2)c1` [Example I-128, N-((5-chlorobenzo[b]thiophen-3-yl)methyl)-1-((6-cyclopropylimidazo[1,2-a]pyridin-2-yl)methyl)-1H-pyrazole-4-carboxamide]: 100 to 2000 nM; `COc1ccnc(CNC(=O)c2cn(Cc3cn4cc(C5CC5)ccc4n3)nn2)c1F` [Example I-7, 1-((6-cyclopropylimidazo[1,2-a]pyridin-2-yl)methyl)-N-((3-fluoro-4-methoxypyridin-2-yl)methyl)-1H-1,2,3-triazole-4-carboxamide]: 10 to 100 nM.
On to `Nc1nnc(CNC(=O)c2cn(Cc3cn4cc(C5CC5)ccc4n3)nn2)o1` [Example I-19, N-((5-amino-1,3,4-oxadiazol-2-yl)methyl)-1-((6-cyclopropylimidazo[1,2-a]pyridin-2-yl)methyl)-1H-1,2,3-triazole-4-carboxamide], for which the EC50 under setting [1] fell in the range of 2000 to 7100 nM.
Same read-out and setting: next, `O=S(=O)(NCc1c(-n2cnnn2)ccc(Cl)c1F)c1cn(Cc2cn3cc(C4CC4)ccc3n2)nn1` [Example I-30, N-(3-chloro-2-fluoro-6-(1H-tetrazol-1-yl)benzyl)-1-((6-cyclopropylimidazo[1,2-a]pyridin-2-yl)methyl)-1H-1,2,3-triazole-4-sulfonamide]: 100 to 2000 nM.
Regarding `O=C(NCc1c(-n2cnnn2)ccc(Br)c1F)c1cn(Cc2cn3cc(C4CC4)ccc3n2)nn1` [Example I-90, N-(3-bromo-2-fluoro-6-(1H-tetrazol-1-yl)benzyl)-1-((6-cyclopropylimidazo[1,2-a]pyridin-2-yl)methyl)-1H-1,2,3-triazole-4-carboxamide], under setting [1], the EC50 was no more than 1 nM.
On the same count and under the same terms, next, `COc1ccc(-n2cnnc2)c(CNC(=O)c2cn(Cc3cn4cc(C5CC5)ccc4n3)nn2)c1F` [Example I-96, 1-((6-cyclopropylimidazo[1,2-a]pyridin-2-yl)methyl)-N-(2-fluoro-3-methoxy-6-(4H-1,2,4-triazol-4-yl)benzyl)-1H-1,2,3-triazole-4-carboxamide]: 1 to 10 nM; `COc1ccc(-n2cnnn2)c(CNC(=O)c2cn(Cc3cn4cc(C5CC5)cc(CCC(=O)O)c4n3)nn2)c1F` [Example I-92, 3-(6-cyclopropyl-2-((4-((2-fluoro-3-methoxy-6-(1H-tetrazol-1-yl)benzyl)carbamoyl)-1H-1,2,3-triazol-1-yl)methyl)imidazo[1,2-a]pyridin-8-yl)propanoic acid]: no more than 1 nM; `O=S(=O)(NCCOc1ccccc1)c1cnn(Cc2cn3cc(C4CC4)ccc3n2)c1` [Example I-36, 1-((6-cyclopropylimidazo[1,2-a]pyridin-2-yl)methyl)-N-(2-phenoxyethyl)-1H-pyrazole-4-sulfonamide]: greater than 7100 nM.
On the same count and under the same terms, next, `COc1ccc(F)c(CNC(=O)c2cn(Cc3cn4cc(C5CC5)ccc4n3)nn2)c1F` [Example I-64, 1-((6-cyclopropylimidazo[1,2-a]pyridin-2-yl)methyl)-N-(2,6-difluoro-3-methoxybenzyl)-1H-1,2,3-triazole-4-carboxamide]: 10 to 100 nM; `COc1ccc(S(=O)(=O)N(C)C)c(CNC(=O)c2cn(Cc3cn4cc(C5CC5)ccc4n3)nn2)c1F` [Example I-57, 1-((6-cyclopropylimidazo[1,2-a]pyridin-2-yl)methyl)-N-(6-(N,N-dimethylsulfamoyl)-2-fluoro-3-methoxybenzyl)-1H-1,2,3-triazole-4-carboxamide]: 1 to 10 nM; `COc1ccc(-n2cnnn2)c(CNC(=O)c2cn(Cc3cn4cc(C5CC5)ccc4n3)cn2)c1F` [Example I-55, 1-((6-cyclopropylimidazo[1,2-a]pyridin-2-yl)methyl)-N-(2-fluoro-3-methoxy-6-(1H-tetrazol-1-yl)benzyl)-1H-imidazole-4-carboxamide]: no more than 1 nM.
In the case of `O=C(NC1Cc2ccc(Cl)cc21)c1cn(Cc2cn3cc(C4CC4)ccc3n2)nn1` (stereo not drawn) [Example I-151, N-(4-chlorobicyclo[4.2.0]octa-1(6),2,4-trien-7-yl)-1-((6-cyclopropylimidazo[1,2-a]pyridin-2-yl)methyl)-1H-1,2,3-triazole-4-carboxamide], under setting [1], the EC50 was 100 to 2000 nM.
On the same count and under the same terms, next, `O=C(NCCc1cccc(Br)c1)c1cnn(Cc2cn3cc(C4CC4)ccc3n2)c1` [Example I-132, N-(3-bromophenethyl)-1-((6-cyclopropylimidazo[1,2-a]pyridin-2-yl)methyl)-1H-pyrazole-4-carboxamide]: 100 to 2000 nM.
On the same count and under the same terms, next, `Cc1[nH]nc2c1CC[C@H]2NC(=O)c1cn(Cc2cn3cc(C4CC4)ccc3n2)nn1` [Example I-154]: 1 to 10 nM.
On the same count and under the same terms, next, `O=C(NCc1cc(=O)[nH]c2ccccc12)c1cnn(Cc2cn3cc(C4CC4)ccc3n2)c1` [Example I-120, 1-((6-cyclopropylimidazo[1,2-a]pyridin-2-yl)methyl)-N-((2-oxo-1,2-dihydroquinolin-4-yl)methyl)-1H-pyrazole-4-carboxamide]: 10 to 100 nM; `O=C(NCc1cc2c(cn1)NCCO2)c1cn(Cc2cn3cc(C4CC4)ccc3n2)nn1` [Example I-149, 1-((6-cyclopropylimidazo[1,2-a]pyridin-2-yl)methyl)-N-((3,4-dihydro-2H-pyrido[4,3-b][1,4]oxazin-7-yl)methyl)-1H-1,2,3-triazole-4-carboxamide]: 10 to 100 nM; `NCc1cc(C2CC2)cn2cc(Cn3cc(C(=O)NC4CCc5c4ccnc5N)nn3)nc12` (stereo not drawn) [Example I-10, N-(1-amino-6,7-dihydro-5H-cyclopenta[c]pyridin-5-yl)-1-((8-(aminomethyl)-6-cyclopropylimidazo[1,2-a]pyridin-2-yl)methyl)-1H-1,2,3-triazole-4-carboxamide]: no more than 1 nM.
